Values joined by “and” are separate entries in the source; they are usually repeats but may differ in a detail not shown here. Equal entries are not always repeated. Marks after values point to notes of the source that are not given here.
Columns and labels:
Format in all cases: cell-based, BALB/c mice
murine splenocytes [1] = assay: In vitro murine splenocyte proliferation assay (Alamar Blue), Example III; conditions: for Effect on splenocyte proliferation in the presence of ConA at higher concentrations / Effect on ConA-induced proliferation at low concentrations: ConA 0.5 μg/mL; for Concentration at which stimulation of resting cell proliferation becomes significant: resting cells, dose-dependent up to 2000 μg/mL; for Effect on ConA-induced proliferation at low concentrations: 10 and 100 μg/mL
Protocol: In vitro murine splenocyte proliferation assay. The impact of whey peptides on splenocyte proliferation was assessed as follow. Spleens from 6-week-old female BALB/c mice (Charles River, St-Constant, QC, Canada) were removed, mechanically disrupted in complete RPMI-1640 medium (RPMI-1640 medium supplemented with 2 mmol L^−1 L-glutamine (Wisent, St-Bruno, QC, Canada), 10% foetal calf serum (FCS, Wisent), 50 μmol L^−1 mercaptoethanol (Sigma-Aldrich), and 100 μg mL^−1 of penicillin/streptomycin (Wisent), and then filtered through 70 μm cell strainer (BD Falcon, Bedford, Mass., USA) under aseptic conditions. Erythrocytes were lysed by osmotic shock using 0.87% NH4Cl (Sigma-Aldrich) for 2 min at 37° C., then cells were washed 3 times at 4° C. with complete RPMI. They were stained with 0.4% trypan blue (Celigro, Mediatech, Washington, D.C., USA) and counted using a Malassez chamber. The cell suspension was then adjusted to 1.25×10^6 viable cells mL^−1 in RPMI medium.
The cells (100 μL) were added to the wells of 96-well round-bottomed microplates containing 50 μL of RPMI, or 50 μL of peptide solutions. Various concentrations (10-2000 μg mL^−1) of the solutions, which were prepared in complete RPMI and adjusted to pH 7, were added to the wells. The same experiments were also performed in the presence of ConA (0.5 μg mL^−1) to evaluate the effects of the products on ConA-stimulated cells. The microplates with and without ConA were incubated for 72 h and 96 h, respectively. Cell proliferation was evaluated by the reduction of the fluorochrome Alamar Blue™ (BioSource international, Camarillo, Calif., USA), which was added to the wells (20 μL) for the last 24 h of the incubation periods. The fluorescence of the supernatants was monitored at an excitation wavelength of 544 nm and an emission wavelength of […] using a fluorometer (Fluoroscan Ascent, Thermo Electron Inc., Milford, Mass., USA). Data are expressed as a stimulation index (SI).

murine splenocytes [2] = assay: Cytokine profile of splenocyte supernatants, RayBio Mouse Cytokine Antibody Array; conditions: peptide 2000 μg/mL + ConA 0.5 μg/mL, 72 h; Cells + ConA = 1
Protocol: Cytokine analyses. After 72 hours, the supernatants from the splenocyte cultures with the cells, cells+ConA (0.5 μg/mL), and each of the peptides (2000 μg/mL) in the presence of ConA (0.5 μg/mL) were collected and stored at −20° C. until used for the cytokine detection assay. A cytokine profile analysis was performed by using the RayBio Mouse Cytokine Antibody Array G series 2 (RayBiotech, Inc., Norcross, Ga.), in order to obtain semi-quantitative levels of 32 different growth factors, cytokines and chemokines (Table 7).
Incubation protocol, signal detection, and interpretation of the data were performed according to manufacturer instructions. Results were expressed as the relative quantity of cytokines detected in the culture supernatants calculated according to the following equation: […]

murine splenocytes [3] = assay: Ex vivo murine splenocytes proliferation assay (Alamar Blue), Example I; conditions: for Stimulation index, proliferation of resting murine splenocytes: without ConA
Protocol: Ex vivo murine splenocytes proliferation assay. The splenocytes were isolated from 6- to 12-weeks-old female BALB/c mice (Charles River, St-Constant, QC, Canada) and cultured in the absence and presence of suboptimal concentration of ConA (0.5 μg/mL). The peptides were solubilized in complete RPMI medium, agitated overnight at 4° C. then the solutions were adjusted to pH 7. Thereafter, the peptide solutions were added at various final concentrations (10-2000 μg/mL, protein basis) to the wells of 96-well round-bottomed microplates, which were incubated at 37° C. at 80% relative humidity in a 5% CO2 atmosphere for 72 h (with ConA) or 96 h (without ConA). Cell proliferation was evaluated by the reduction of the fluorochrome Alamar Blue™ (BioSource international, Camarillo, Calif., USA), which was added into the wells for the last 24 h of the incubation periods. The fluorescence of the supernatants was monitored at an excitation wavelength of 560 nm and an emission wavelength of 590 nm using a fluorometer (Fluoroscan Ascent, Thermo Electron Inc., Milford, Mass., USA). The assays were performed in triplicate (three wells per sample) and data are expressed as stimulation indices (SI), and calculated using the following equations: […]

murine splenocytes [4] = assay: Cytokine secretion in splenocyte culture supernatants by ELISA, Example I
Protocol: Cytokine analysis. The supernatants from 72 h-splenocytes cultures were collected and their cytokine content was measured. The optimal incubation times were determined from preliminary assays with peptide fractions. The levels of IL-4, IL-10 and IFN-γ were determined using commercial ELISA kits (BioLegend, San Diego, Calif., USA) according to the manufacturer's instructions. Interleukin-2 levels were also measured by ELISA using a commercial kit (BioSource International, Camarillo, Calif., USA) according to the manufacturer's instructions. The results are the means of four or more assays (three wells per sample). The detection limits for IL-2, IL-4, IL-10 and IFN-γ were <8.0, <1.0, <30.0 and <4.0 pg/mL, respectively.
Cytokine analysis were performed at concentration leading to optimal spleen cells proliferation of peptide β-Lg f139-148 (SEQ ID NO. 1) (2000 μg/mL) as reported in Tables 2 and 3. The sequence β-Lg f78-83 (SEQ ID NO. 10), resulting in no effect on the cytokine secretion of resting- and ConA-stimulated murine splenocytes (results not shown), was used as control at concentration of 10 μg/mL for statistical analysis. The effects of the selected peptide on cytokine secretion from splenocytes cultured in the absence and presence of 0.5 μg/mL of ConA are shown in Table 5.

murine splenocytes [5] = assay: Ex vivo murine splenocytes proliferation assay (Alamar Blue), Example I; conditions: peptide 2000 μg/mL, FIG. 2
[6] = peptide 10 μg mL^−1, 72 h, ConA 0.5 μg/mL
[7] = splenocytes with ConA 0.5 μg mL^−1, peptide 2000 μg mL^−1
[8] = splenocytes without ConA, peptide 2000 μg mL^−1
[9] = splenocytes with ConA 0.5 μg mL^−1, control peptide 10 μg/mL
[10] = splenocytes without ConA, control peptide 10 μg/mL

| Substance | Effect on splenocyte proliferation in the presence of ConA at higher concentrations (murine splenocytes [1]) | Concentration at which stimulation of resting cell proliferation becomes significant (murine splenocytes [1]) [µg/mL] | Relative quantity of IFN-γ in supernatant (murine splenocytes [2]) | Relative quantity of IL-2 in supernatant (murine splenocytes [2]) | Relative quantity of IL-3 in supernatant (murine splenocytes [2]) | Relative quantity of IL-4 in supernatant (murine splenocytes [2]) | Relative quantity of IL-17 in supernatant (murine splenocytes [2]) | Relative quantity of RANTES in supernatant (murine splenocytes [2]) | Relative quantity of VEGF in supernatant (murine splenocytes [2]) | further results |
| --- | --- | --- | --- | --- | --- | --- | --- | --- | --- | --- |
| ALK (listed as Homo sapiens) [β-Lg f139-141] | lost their stimulating capacity | 500 | 1.0 | 1.7 | 0.7 | 1 | 1.1 | 1.7 | 0.9 | – |
| ALKALPMHIR (listed as Homo sapiens) [β-Lg f139-148] | – | – | – | – | – | – | – | – | – | Stimulation index, proliferation of murine splenocytes in the presence of Concavanalin A (murine splenocytes [3]; [6]): 2.28; Stimulation index, proliferation of resting murine splenocytes (murine splenocytes [3]; peptide 10 μg mL^−1, 96 h): 1.08*; Stimulation index, proliferation of murine splenocytes in the presence of Concavanalin A (murine splenocytes [3]; peptide 100 μg mL^−1, 72 h, ConA 0.5 μg/mL): 2.24; Stimulation index, proliferation of resting murine splenocytes (murine splenocytes [3]; peptide 100 μg mL^−1, 96 h): 1.17**; Stimulation index, proliferation of murine splenocytes in the presence of Concavanalin A (murine splenocytes [3]; peptide 500 μg mL^−1, 72 h, ConA 0.5 μg/mL): 2.36*; Stimulation index, proliferation of resting murine splenocytes (murine splenocytes [3]; peptide 500 μg mL^−1, 96 h): 1.35**; Stimulation index, proliferation of murine splenocytes in the presence of Concavanalin A (murine splenocytes [3]; peptide 1000 μg mL^−1, 72 h, ConA 0.5 μg/mL): 2.62**; Stimulation index, proliferation of resting murine splenocytes (murine splenocytes [3]; peptide 1000 μg mL^−1, 96 h): 1.53**; Stimulation index, proliferation of murine splenocytes in the presence of Concavanalin A (murine splenocytes [3]; peptide 2000 μg mL^−1, 72 h, ConA 0.5 μg/mL): 2.73**; Stimulation index, proliferation of resting murine splenocytes (murine splenocytes [3]; peptide 2000 μg mL^−1, 96 h): 1.77**; IFN-γ secretion in supernatant (murine splenocytes [4]; [7]): 717.5** pg mL^−1; IL-2 secretion in supernatant (murine splenocytes [4]; [7]): 15.8 pg/mL; IL-4 secretion in supernatant (murine splenocytes [4]; [7]): 3.0** pg mL^−1; IL-10 secretion in supernatant (murine splenocytes [4]; [7]): <30.0 pg/mL; IFN-γ secretion in supernatant (murine splenocytes [4]; [8]): 81.3** pg mL^−1; IL-2 secretion in supernatant (murine splenocytes [4]; [8]): 9.3 pg/mL; IL-4 secretion in supernatant (murine splenocytes [4]; [8]): <1.0 pg/mL; IL-10 secretion in supernatant (murine splenocytes [4]; [8]): <30.0 pg/mL |
| Asp-Thr-Asp-Tyr (DTDY; listed as Homo sapiens) [β-Lg f96-99] | lost their stimulating capacity | 500 | 4.5 | 3.6 | 2.8 | 1.8 | 1.7 | 1.4 | 2.3 | Effect on ConA-induced proliferation at low concentrations (murine splenocytes [1]): inhibited |
| DAQSAPLR [β-Lg f33-40] | – | – | 0.7 | 0.6 | 0.1 | 0.7 | 0.6 | 0.4 | 0.8 | – |
| GLDIQK (listed as Homo sapiens) [β-Lg f9-14] | lost their stimulating capacity | – | 1.7 | 2.6 | 1.0 | 1.4 | 1.1 | 1.0 | 2.0 | Effect on proliferation of resting splenocytes (murine splenocytes [1]; 10-2000 μg/mL, without ConA): only a small stimulation at the highest concentration |
| His-Ile-Arg (HIR; listed as Homo sapiens) [β-Lg f146-148] | lost their stimulating capacity | 500 | 8.6 | 2.1 | 1.8 | 0.5 | 1.4 | 0.8 | 4.8 | Stimulation index (SI), proliferation of resting splenocytes (murine splenocytes [1]; 500 μg/mL, without ConA): 1.20; Stimulation index (SI), proliferation of resting splenocytes (murine splenocytes [1]; 1000 μg/mL, without ConA): 1.36; Stimulation index (SI), proliferation of resting splenocytes (murine splenocytes [1]; 2000 μg/mL, without ConA): 1.37; Effect on ConA-induced proliferation at low concentrations (murine splenocytes [1]): inhibited |
| IPAVFK (listed as Homo sapiens) [β-Lg f78-83, β-lactoglobulin fragment 78-83 used as control peptide, reference compound] | – | – | – | – | – | – | – | – | – | Microscopic appearance of resting- and ConA-stimulated cultured cells (murine splenocytes [5]): no effect on the appearance of cultured cells; Effect on the proliferation of ConA-stimulated murine splenocytes (murine splenocytes [3]; all concentrations studied (10-2000 μg/mL), ConA 0.5 μg/mL, FIG. 1B): no effect; Effect on the proliferation of resting murine splenocytes (murine splenocytes [3]; all concentrations studied (10-2000 μg/mL), FIG. 1A): no effect; Stimulation index, proliferation of murine splenocytes in the presence of Concavanalin A (murine splenocytes [3]; [6]): 2.10 and 1.91 and 1.93 and 1.68; Stimulation index, proliferation of resting murine splenocytes (murine splenocytes [3]; peptide 10 μg mL^−1, 96 h): 0.98 and 1.00 and 1.11 and 1.02 and 1.04; Effect on the cytokine secretion of resting- and ConA-stimulated murine splenocytes (murine splenocytes [4]; results not shown): no effect; IFN-γ secretion in supernatant (murine splenocytes [4]; [9]): 252.9 pg/mL; IL-2 secretion in supernatant (murine splenocytes [4]; [9]): 15.6 pg/mL; IL-4 secretion in supernatant (murine splenocytes [4]; [9]): 4.4 pg/mL; IL-10 secretion in supernatant (murine splenocytes [4]; [9]): <30.0 pg/mL; IFN-γ secretion in supernatant (murine splenocytes [4]; [10]): 7.1 pg/mL; IL-2 secretion in supernatant (murine splenocytes [4]; [10]): 10.0 pg/mL; IL-4 secretion in supernatant (murine splenocytes [4]; [10]): <1.0 pg/mL; IL-10 secretion in supernatant (murine splenocytes [4]; [10]): <30.0 pg/mL |

— patent US20090297545A1, “IMMUNOMODULATORY DAIRY PEPTIDES AND USES THEREOF” (Universite Laval, priority 2008, published 2009)
